Experimental data as given in patent US20230220480A1, “IRON-SCORE AND IN VITRO METHOD FOR IDENTIFYING HIGH RISK DLBCL SUBJECTS AND THERAPEUTIC USES AND METHODS” (CENTRE NATIONAL DE LA RECHERCHE SCIENTIFIQUE (CNRS), priority 2019, published 2023).

Test system: OCI-LY3 and DB cell lines
Description: The inventors further investigated the effect of Iron supplementation on the cell death induced by these treatments. Iron chelators concentrations were chosen according the maximal plasmatic concentration achievable in the patient (Nisbet-Brown et al., 2003).
Chaetocin was used as positive control of ROS production inhibited by GSH (Isham et al., 2007).

**Q.** Which “caspase activation associated with apoptosis” value does the source give for `C#CCN[C@@H]1C=C[C@]2(O[C@H]([C@@H](CC)C(=O)[C@@H](C)[C@@H](O)[C@H](C)[C@@H]3O[C@@H]([C@@H](CC)C(=O)O)CC[C@@H]3C)[C@@H](C)C[C@H]2C)O[C@@]12CC[C@@](C)([C@H]1CC[C@](O)(CC)[C@H](C)O1)O2` [Ironomycin] here?
**A.** activation of caspase-3 and −7

**Q.** What about the induction of apoptosis (Annexin V and PARP cleavage) of the same molecule?
**A.** induces apoptosis

**Q.** And the “effect of iron supplementation on drug-induced apoptosis / cytotoxicity” value (Iron(III) chloride supplementation)?
**A.** did not affect

**Q.** What about the “inhibition of induced apoptosis by Oph-Q-VD pan-caspase inhibitor” value (P<0.001) of the same molecule?
**A.** partially inhibited
